According to patent US20080146495A1, “Methods for Treating Hiv by Inhibiting Cd4 Down-Modulation” (The Regents of the University of California, priority 2005, published 2008):

Tests used:
Type in all cases: cell-based
HIV-1 = system: HIV-1
HIV-1 R9 = system: HIV-1 R9
[1] = system: CXCR4-tropic R9 HIV-1 strain; experiment: Viral replication assay in transduced Jurkat Low-CD4 cells (p24 accumulation)
HIV-1 (R9) [2] = experiment: Infectivity in MAGIC5 cells of particles released from transduced SupT1, C8166 and MAGIC5B cells; details: three cell types (SupT1, C8166, MAGIC5B); compared to control GFP vectors
Protocol: Infectivity assays were performed with MAGIC-5 cells using equal amounts of input virus (measured as ng p24 protein) in the presence of 20 μg/ml DEAE dextran. Infection was allowed for 48 hours. Routinely, after 8 hrs of infection, 1 μM AZT was added to block second rounds of virus replication. Infected cells were scored after staining for beta-galactosidase with X-Gal.
Truncated receptor provided to a cell via one of the above-described vectors negatively interferes with HIV-induced down-regulation of endogenous CD4 receptor. […] Though any suitable cell line could be used, the three chosen were: SupT1, C8166, and MAGIC5B. These were selected because they express high levels of viral receptor, as shown in the bottom panel of FIG. 7. Transduction efficiencies with GFP control vectors were higher than 90% in all cell lines, as estimated by flow cytometry. Infection of mock-transduced cells with HIV-1 led to efficient down-modulation of CD4. […] In these cultures, a population of low-CD4/p24-positive infected cells that had undergone receptor down-modulation emerged. […] The infectivity of viral particles released from the cells was determined as with respect to FIG. 5, above.

[3] = system: HIV-1 Env (gp160, gp120, gp41)
HIV-1 (R9) [4] = experiment: Surface CD4 down-modulation in transduced PBMC infected with HIV-1 (flow cytometry)
[5] = system: HIV-1 Nef (NA7) fused to GFP; details: 293T cells transduced with pHR'-CMV vectors, transfected with Nef (NA7)-GFP
HIV-1 (R9) [6] = experiment: HIV-induced CD4 down-modulation in transduced CD4-positive cell lines (SupT1, C8166, MAGIC5B)
[7] = virions purified through sucrose cushions

Compound	extent of inhibition of infectivity relative to that by CD4Δcyt expression (HIV-1; 1 μM added to target MAGIC5 cells)	amount on the surface of infected cells, mean values (HIV-1 R9)	down-modulation of surface receptor by HIV-1 (VSV) (HIV-1 R9)	surface levels in HIV-1 infected cells, higher than in infected cells transduced with wild-type CD4 (HIV-1 R9) [fold]	HIV-1 replication (p24 accumulation in cultures) ([1]; Jurkat Low-CD4 cells, HIV-1 R9)	revertant viruses ([1]; after more than 60 days, two independent experiments, Jurkat Low-CD4 cells exposed to HIV-1)	extent of inhibition in single-round infectivity assays (HIV-1)	reduced infectivity of viral progeny (HIV-1) [fold]	reduction of infectivity of HIV-1 (HIV-1)	infectivity of viral particles released from transduced cells (HIV-1 (R9) [2])	gp160 envelope precursor in producer cell lysates (anti-gp120 western blot) ([3]; total cell lysates of 293T producer cells)	steady-state levels of gp41 in producer cells ([3]; transduced 293T cells)	gp41 incorporation in membranes from virions [3, 7]	gp120 incorporation into / exclusion from virions [3, 7]	reduction in CD4 down-modulation compared to cells transduced with full-length receptor (HIV-1 (R9) [4]; PBMC infected with HIV-1)	numbers of low-CD4/GFP-positive cells after HIV-1 infection (HIV-1 (R9) [4]; PBMC transduced to similar levels with pWPI vector)	effect of Nef-GFP expression on surface expression of the CD4 variant [5]	surface CD4 levels in infected cells, higher than in mock-infected cells (HIV-1 (R9) [6]; SupT1, C8166, MAGIC5B cells)	receptor down-modulation after HIV-1 infection of transduced CD4-positive cells (HIV-1 (R9) [6]; SupT1, C8166, MAGIC5B cells, 48 h after infection)	p24-positive cells with low levels of CD4 receptor (HIV-1 (R9) [6]; cultures of SupT1 and C8166 cells)
Cc1cn([C@H]2C[C@H](N=[N+]=[N-])[C@@H](CO)O2)c(=O)[nH]c1=O [AZT, reference compound]	comparable																			
CD4Δcyt		2857	completely resistant to down-modulation	11	complete abrogation of HIV-1 replication	not detected	greater than 99%	100	more than 1000 fold	largely diminished infectivity	accumulation of a 160 kDa protein band	reduction in the steady-state levels of gp41	Reductions in gp41 incorporation	more severe	more than 10 fold	reduced numbers of low-CD4/GFP-positive cells	did not alter the expression	3- to 4 fold	failed to down-modulate the receptor	no longer observed
